Measurements: the supplement of paper PMC13207355

Assays:
Details in all cases: exposure time: 72 h
E28 [1] = patient-derived glioblastoma stem cells of classical subtype; experiment: surviving fraction (nuclei count normalised to DMSO); higher = more cells surviving (less toxic)
FT3469 [2] = normal neural stem cell line; experiment: as above
E13 [3] = patient-derived glioblastoma stem cells of classical subtype; experiment: as above
E57 [4] = patient-derived glioblastoma stem cells of mesenchymal subtype; experiment: as above
E34 [5] = patient-derived glioblastoma stem cells of proneural subtype; experiment: as above
E21 [6] = patient-derived glioblastoma stem cells of mesenchymal subtype; experiment: as above
E31 [7] = patient-derived glioblastoma stem cells of proneural subtype; experiment: as above
E28 [8] = experiment: phenotypic distance (Euclidean, principal components) from DMSO controls (arbitrary units); higher = stronger morphological change
FT3469 [9] = experiment: as above
E13 [10] = experiment: as above
E57 [11] = experiment: as above
E34 [12] = experiment: as above
E21 [13] = experiment: as above
E31 [14] = experiment: as above
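Wherever phenotypic distance (Euclidean, principal components) from DMSO controls is given: cell Painting imaging in 384-well plates, CellProfiler features reduced to at least 20 principal components, Euclidean distance versus same-plate DMSO vehicle wells (0.1% v/v), median over six images per well.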
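Wherever surviving fraction (nuclei count normalised to DMSO) is given: nuclei counted by high-content imaging of Hoechst-stained cells in laminin-coated 384-well plates, relative to 0.1% DMSO vehicle wells, with staurosporine as cell-death control.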

OC[C@H]1O[C@@H](Oc2ccc(O)cc2)[C@H](O)[C@@H](O)[C@@H]1O [Arbutin]
Details	phenotypic distance	surviving fraction
E13 [3], 4.1 nM	–	1.01
E13 [3], 12.3 nM	–	1.04
E13 [3], 37 nM	–	0.905
E13 [3], 111.1 nM	–	0.917
E13 [3], 333.3 nM	–	0.929
E13 [3], 1000 nM	–	1.04
E13 [3], 3000 nM	–	0.991
E13 [10], 4.1 nM	0.566	–
E13 [10], 12.3 nM	0.859	–
E13 [10], 37 nM	0.511	–
E13 [10], 111.1 nM	0.508	–
E13 [10], 333.3 nM	0.829	–
E13 [10], 1000 nM	0.191	–
E13 [10], 3000 nM	0.813	–
E21 [6], 4.1 nM	–	1.03
E21 [6], 12.3 nM	–	0.989
E21 [6], 37 nM	–	1.07
E21 [6], 111.1 nM	–	0.916
E21 [6], 333.3 nM	–	1.05
E21 [6], 1000 nM	–	0.971
E21 [6], 3000 nM	–	0.967
E21 [13], 4.1 nM	0.434	–
E21 [13], 12.3 nM	1.06	–
E21 [13], 37 nM	0.902	–
E21 [13], 111.1 nM	0.857	–
E21 [13], 333.3 nM	0.484	–
E21 [13], 1000 nM	0.568	–
E21 [13], 3000 nM	0.491	–
E28 [1], 4.1 nM	–	1.1
E28 [1], 12.3 nM	–	1.03
E28 [1], 37 nM	–	1.07
E28 [1], 111.1 nM	–	1.15
E28 [1], 333.3 nM	–	1.07
E28 [1], 1000 nM	–	1.07
E28 [1], 3000 nM	–	0.905
E28 [8], 4.1 nM	0.41	–
E28 [8], 12.3 nM	0.873	–
E28 [8], 37 nM	0.666	–
E28 [8], 111.1 nM	1.1	–
E28 [8], 333.3 nM	0.543	–
E28 [8], 1000 nM	0.716	–
E28 [8], 3000 nM	0.531	–
E31 [7], 4.1 nM	–	0.937
E31 [7], 12.3 nM	–	0.846
E31 [7], 37 nM	–	0.945
E31 [7], 111.1 nM	–	0.889
E31 [7], 333.3 nM	–	1.05
E31 [7], 1000 nM	–	1.13
E31 [7], 3000 nM	–	0.884
E31 [14], 4.1 nM	0.898	–
E31 [14], 12.3 nM	0.639	–
E31 [14], 37 nM	0.606	–
E31 [14], 111.1 nM	0.754	–
E31 [14], 333.3 nM	0.505	–
E31 [14], 1000 nM	0.754	–
E31 [14], 3000 nM	0.805	–
E34 [5], 4.1 nM	–	0.904
E34 [5], 12.3 nM	–	1.15
E34 [5], 37 nM	–	1.05
E34 [5], 111.1 nM	–	1.02
E34 [5], 333.3 nM	–	1.08
E34 [5], 1000 nM	–	1.02
E34 [5], 3000 nM	–	0.848
E34 [12], 4.1 nM	0.689	–
E34 [12], 12.3 nM	0.94	–
E34 [12], 37 nM	0.434	–
E34 [12], 111.1 nM	0.454	–
E34 [12], 333.3 nM	0.675	–
E34 [12], 1000 nM	0.496	–
E34 [12], 3000 nM	1.12	–
E57 [4], 4.1 nM	–	0.949
E57 [4], 12.3 nM	–	0.993
E57 [4], 37 nM	–	1.11
E57 [4], 111.1 nM	–	0.918
E57 [4], 333.3 nM	–	1.07
E57 [4], 1000 nM	–	1
E57 [4], 3000 nM	–	1
E57 [11], 4.1 nM	0.568	–
E57 [11], 12.3 nM	0.753	–
E57 [11], 37 nM	0.629	–
E57 [11], 111.1 nM	0.522	–
E57 [11], 333.3 nM	0.897	–
E57 [11], 1000 nM	0.4	–
E57 [11], 3000 nM	0.484	–
FT3469 [2], 4.1 nM	–	1.08
FT3469 [2], 12.3 nM	–	0.99
FT3469 [2], 37 nM	–	1.28
FT3469 [2], 111.1 nM	–	0.987
FT3469 [2], 333.3 nM	–	1.18
FT3469 [2], 1000 nM	–	1.16
FT3469 [2], 3000 nM	–	0.993
FT3469 [9], 4.1 nM	0.247	–
FT3469 [9], 12.3 nM	0.982	–
FT3469 [9], 37 nM	0.795	–
FT3469 [9], 111.1 nM	1.03	–
FT3469 [9], 333.3 nM	0.636	–
FT3469 [9], 1000 nM	1.1	–
FT3469 [9], 3000 nM	0.991	–

CC1CNc2c(cccc2S(=O)(=O)N[C@@H](CCCNC(=N)N)C(=O)N2CC[C@@H](C)C[C@@H]2C(=O)O)C1 (stereo partly specified) [Argatroban]
Details	phenotypic distance	surviving fraction
E13 [3], 4.1 nM	–	0.887
E13 [3], 12.3 nM	–	0.726
E13 [3], 37 nM	–	1.06
E13 [3], 111.1 nM	–	0.787
E13 [3], 333.3 nM	–	1.03
E13 [3], 1000 nM	–	0.955
E13 [3], 3000 nM	–	1.04
E13 [10], 4.1 nM	0.936	–
E13 [10], 12.3 nM	1.03	–
E13 [10], 37 nM	0.706	–
E13 [10], 111.1 nM	0.818	–
E13 [10], 333.3 nM	0.637	–
E13 [10], 1000 nM	0.667	–
E13 [10], 3000 nM	0.543	–
E21 [6], 4.1 nM	–	0.935
E21 [6], 12.3 nM	–	0.953
E21 [6], 37 nM	–	0.963
E21 [6], 111.1 nM	–	0.778
E21 [6], 333.3 nM	–	1.07
E21 [6], 1000 nM	–	1.08
E21 [6], 3000 nM	–	1.11
E21 [13], 4.1 nM	1.43	–
E21 [13], 12.3 nM	0.727	–
E21 [13], 37 nM	1.18	–
E21 [13], 111.1 nM	0.876	–
E21 [13], 333.3 nM	1.26	–
E21 [13], 1000 nM	1.01	–
E21 [13], 3000 nM	1.26	–
E28 [1], 4.1 nM	–	0.975
E28 [1], 12.3 nM	–	0.963
E28 [1], 37 nM	–	0.877
E28 [1], 111.1 nM	–	1.3
E28 [1], 333.3 nM	–	1.01
E28 [1], 1000 nM	–	1.14
E28 [1], 3000 nM	–	1.16
E28 [8], 4.1 nM	0.894	–
E28 [8], 12.3 nM	0.602	–
E28 [8], 37 nM	0.844	–
E28 [8], 111.1 nM	0.794	–
E28 [8], 333.3 nM	0.356	–
E28 [8], 1000 nM	0.549	–
E28 [8], 3000 nM	0.893	–
E31 [7], 4.1 nM	–	1.08
E31 [7], 12.3 nM	–	0.893
E31 [7], 37 nM	–	0.911
E31 [7], 111.1 nM	–	0.95
E31 [7], 333.3 nM	–	0.959
E31 [7], 1000 nM	–	1.04
E31 [7], 3000 nM	–	1.12
E31 [14], 4.1 nM	0.911	–
E31 [14], 12.3 nM	0.664	–
E31 [14], 37 nM	0.863	–
E31 [14], 111.1 nM	0.601	–
E31 [14], 333.3 nM	2.25	–
E31 [14], 1000 nM	0.919	–
E31 [14], 3000 nM	0.822	–
E34 [5], 4.1 nM	–	1.04
E34 [5], 12.3 nM	–	1.04
E34 [5], 37 nM	–	0.976
E34 [5], 111.1 nM	–	0.935
E34 [5], 333.3 nM	–	1.05
E34 [5], 1000 nM	–	1.13
E34 [5], 3000 nM	–	0.923
E34 [12], 4.1 nM	0.682	–
E34 [12], 12.3 nM	0.667	–
E34 [12], 37 nM	0.842	–
E34 [12], 111.1 nM	0.535	–
E34 [12], 333.3 nM	0.743	–
E34 [12], 1000 nM	1.04	–
E34 [12], 3000 nM	1.26	–
E57 [4], 4.1 nM	–	1.01
E57 [4], 12.3 nM	–	1.03
E57 [4], 37 nM	–	0.918
E57 [4], 111.1 nM	–	1.04
E57 [4], 333.3 nM	–	1.04
E57 [4], 1000 nM	–	1.01
E57 [4], 3000 nM	–	0.888
E57 [11], 4.1 nM	0.489	–
E57 [11], 12.3 nM	0.826	–
E57 [11], 37 nM	0.498	–
E57 [11], 111.1 nM	0.438	–
E57 [11], 333.3 nM	0.495	–
E57 [11], 1000 nM	0.711	–
E57 [11], 3000 nM	0.963	–
FT3469 [2], 4.1 nM	–	0.74
FT3469 [2], 12.3 nM	–	0.878
FT3469 [2], 37 nM	–	0.961
FT3469 [2], 111.1 nM	–	0.906
FT3469 [2], 333.3 nM	–	1.09
FT3469 [2], 1000 nM	–	0.99
FT3469 [2], 3000 nM	–	0.886
FT3469 [9], 4.1 nM	3.82	–
FT3469 [9], 12.3 nM	1.39	–
FT3469 [9], 37 nM	0.709	–
FT3469 [9], 111.1 nM	0.753	–
FT3469 [9], 333.3 nM	0.744	–
FT3469 [9], 1000 nM	0.391	–
FT3469 [9], 3000 nM	1.07	–
